Test results from US7910324B2, “Method of screening for compounds which affect the processing of EphA4 by γ-secretase” (priority 2007, dated 2011).

How the values were obtained:
[1] = system: γ-secretase cleavage of EphA4 in rat hippocampal neurons; experiment: EphA4 processing in primary culture of rat hippocampal neurons, Western blot with anti-EphA4 antibody; type: cell-based; conditions: Compound E 50 nM, one week
Method: Whether or not EphA4 is a substrate for γ-secretase was evaluated using a primary culture of rat hippocampal neurons in the presence of a γ-secretase inhibitor. As the γ-secretase inhibitor, (2S)-2-{[(3,5-difluorophenyl)acetyl]amino}-N-[(3S)-1-methyl-2-oxo-5-phenyl-2,3-dihydro-1H-1,4-benzodiazepin-3-yl]propanamide (Compound E) (Alexis Biochemicals) was used.
The hippocampus was isolated from embryonic day 18 SD rats (Charles River) and subjected to culture. Specifically, embryos were removed aseptically from pregnant rats under etherization. The brain was removed from each embryo and dipped in 20% FBS (Hyclone)/HBSS (Sigma). The hippocampus was collected from the thus obtained brain under a stereomicroscope. The collected hippocampus was treated in an enzyme solution containing 0.25% trypsin (Invitrogen) and 0.5 mg/ml DNase (Sigma) at 37° C. for 10 minutes to disperse cells. This enzyme reaction was terminated by adding 20% FBS (Hyclone)/HBSS (Sigma). Then, 2 ml of HBSS (Sigma) was added to the resultant cells. The HBSS-added cell mass was re-dispersed by gentle pipetting. The resultant neuron suspension was diluted with a medium and plated in 10 cm dishes at an initial cell density of 1.5×10^6 cells/dish. […] Then, cells were collected with PBS and subjected to quantitative determination of protein. […]

[2] = system: γ-secretase cleavage of rat EphA4 with HA tag in HEK293 cells; experiment: EphA4 processing in EphA4-HA transfected 293/EBNA-1 cells, Western blot with anti-HA antibody; type: cell-based; conditions: Compound E 50 nM, one day, EphA4-HA transfected 293/EBNA-1 (HEK293) cells
Method: Whether or not EphA4 is a substrate for γ-secretase was evaluated using HEK293 cells expressing EphA4 with an HA tag added to its C-terminus, in the presence of a γ-secretase inhibitor. As the γ-secretase inhibitor, (2S)-2-{[(3,5-difluorophenyl)acetyl]amino}-N-[(3S)-1-methyl-2-oxo-5-phenyl-2,3-dihydro-1H-1,4-benzodiazepin-3-yl]propanamide (hereinafter, sometimes referred to as “Compound E”) (Alexis Biochemicals) was used.
293/EBNA-1 cell strain (Invitrogen) was cultured in 10% FBS (Hyclone)/DMEM (Invitrogen) under 5% CO2 at 37° C., followed by transfection thereinto of a gene encoding rat EphA4 with an HA tag added to its C-terminus with Lipofectamine 2000 (Invitrogen). After one day culture under the same conditions, Compound E (γ-secretase inhibitor, Alexis Biochemicals) was added to the medium (final concentration: 50 nM). Cells were cultured for another day under the same conditions. Then, the transfected HEK293 cells were collected with PBS (Sigma) and sonicated with a sonicator (Taitec VP-5S) to disrupt cells. Then, the quantity of protein was determined with Protein Assay Kit (BioRad). Samples (2 μg each) were taken from proteins obtained from Compound E-added cells and Compound E-not added cells, respectively, and subjected to SDS-PAGE, followed by Western blotting with an anti-HA antibody (Roche) (final concentration: 0.2 μg/ml). […]

## C[C@H](NC(=O)Cc1cc(F)cc(F)c1)C(=O)N[C@H]1N=C(c2ccccc2)c2ccccc2N(C)C1=O [Compound E, (2S)-2-{[(3,5-difluorophenyl)acetyl]amino}-N-[(3S)-1-methyl-2-oxo-5-phenyl-2,3-dihydro-1H-1,4-benzodiazepin-3-yl]propanamide]
[1]
  accumulation of EphA4 CTF band around 50 kDa: a band around 50 kDa (CTF) was accumulated specifically
[2]
  accumulation of EphA4 CTF band around 50 kDa (EphA4 undegraded product): a band around 50 kDa (CTF) was accumulated specifically
